PubChem BioAssay (NCI)
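Abbreviation: GI50, concentration required for 50% inhibition of growth. TGI is the concentration that stops growth completely.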

Legend:
Experiment in all cases: NCI anticancer screen, dose series, 384-well format
NCI-H226 lung = tested on: NCI-H226 lung
HOP-92 NSCLC = tested on: HOP-92 NSCLC
SF-268 CNS = tested on: SF-268 CNS
HL-60(TB) leukemia = tested on: HL-60(TB) leukemia
MOLT-4 leukemia = tested on: MOLT-4 leukemia
SNB-75 CNS = tested on: SNB-75 CNS
SNB-19 CNS = tested on: SNB-19 CNS
UO-31 renal = tested on: UO-31 renal
TK-10 renal = tested on: TK-10 renal
OVCAR-3 ovarian = tested on: OVCAR-3 ovarian
MALME-3M melanoma = tested on: MALME-3M melanoma
SK-MEL-5 melanoma = tested on: SK-MEL-5 melanoma
LOX IMVI melanoma = tested on: LOX IMVI melanoma
HCT-15 colon = tested on: HCT-15 colon
OVCAR-4 ovarian = tested on: OVCAR-4 ovarian
UACC-257 melanoma = tested on: UACC-257 melanoma
IGROV1 ovarian = tested on: IGROV1 ovarian
NCI-H23 lung = tested on: NCI-H23 lung
MDA-MB-468 breast = tested on: MDA-MB-468 breast
HCT-116 colon = tested on: HCT-116 colon
OVCAR-5 ovarian = tested on: OVCAR-5 ovarian
HS 578T breast = tested on: HS 578T breast
T-47D breast = tested on: T-47D breast
SN12C renal = tested on: SN12C renal
SK-MEL-28 melanoma = tested on: SK-MEL-28 melanoma
A549 NSCLC = tested on: A549 NSCLC
MCF7 breast = tested on: MCF7 breast
RXF 393 renal = tested on: RXF 393 renal
KM12 colon = tested on: KM12 colon
UACC-62 melanoma = tested on: UACC-62 melanoma
NCI/ADR-RES ovarian = tested on: NCI/ADR-RES ovarian
COLO 205 colon = tested on: COLO 205 colon
CAKI-1 renal = tested on: CAKI-1 renal
MDA-MB-231 breast = tested on: MDA-MB-231 breast
SF-295 CNS = tested on: SF-295 CNS
SW-620 colon = tested on: SW-620 colon
SR leukemia = tested on: SR leukemia
786-0 renal = tested on: 786-0 renal
HT29 colon = tested on: HT29 colon
M14 melanoma = tested on: M14 melanoma
A498 renal = tested on: A498 renal
NCI-H322M lung = tested on: NCI-H322M lung
RPMI-8226 leukemia = tested on: RPMI-8226 leukemia
K-562 leukemia = tested on: K-562 leukemia
SK-OV-3 ovarian = tested on: SK-OV-3 ovarian
SK-MEL-2 melanoma = tested on: SK-MEL-2 melanoma
DU-145 prostate = tested on: DU-145 prostate

`CS(=O)(=O)CCNCc1ccc(-c2ccc3ncnc(Nc4ccc(OCc5cccc(F)c5)c(Cl)c4)c3c2)o1` gave a GI50 (NCI-H226 lung) of 2120 nM, a TGI (NCI-H226 lung) of 4750 nM and a GI50 (HOP-92 NSCLC) of 1370 nM. For the same compound, the TGI (HOP-92 NSCLC) was 2680 nM, the GI50 (SF-268 CNS) was 2630 nM and the TGI (SF-268 CNS) was 6970 nM. It also gave a GI50 (HL-60(TB) leukemia) of 2260 nM, a TGI (HL-60(TB) leukemia) of 3730 nM and a GI50 (MOLT-4 leukemia) of 1490 nM. The TGI (MOLT-4 leukemia) was 2820 nM, the GI50 (SNB-75 CNS) was 2280 nM and the TGI (SNB-75 CNS) was 5280 nM. For the same compound, the GI50 (SNB-19 CNS) was 4430 nM, the TGI (SNB-19 CNS) was 9080 nM and the GI50 (UO-31 renal) was 1090 nM. It also gave a TGI (UO-31 renal) of 3890 nM, a GI50 (TK-10 renal) of 644 nM and a TGI (TK-10 renal) of 4500 nM. It also gave a GI50 (OVCAR-3 ovarian) of 1580 nM, a TGI (OVCAR-3 ovarian) of 2960 nM and a GI50 (MALME-3M melanoma) of 1830 nM. The TGI (MALME-3M melanoma) was 3230 nM, the GI50 (SK-MEL-5 melanoma) was 1770 nM and the TGI (SK-MEL-5 melanoma) was 3160 nM. For the same compound, the GI50 (LOX IMVI melanoma) was 1800 nM, the TGI (LOX IMVI melanoma) was 3210 nM and the GI50 (HCT-15 colon) was 1450 nM. The TGI (HCT-15 colon) was 2790 nM, the GI50 (OVCAR-4 ovarian) was 1720 nM and the TGI (OVCAR-4 ovarian) was 3190 nM. For the same compound, the GI50 (UACC-257 melanoma) was 1990 nM, the TGI (UACC-257 melanoma) was 3420 nM and the GI50 (IGROV1 ovarian) was 751 nM. It also gave a TGI (IGROV1 ovarian) of 2870 nM, a GI50 (NCI-H23 lung) of 2070 nM and a TGI (NCI-H23 lung) of 4070 nM. The GI50 (MDA-MB-468 breast) was 45.2 nM, the TGI (MDA-MB-468 breast) was 260 nM and the GI50 (HCT-116 colon) was 1850 nM. The TGI (HCT-116 colon) was 3450 nM, the GI50 (OVCAR-5 ovarian) was 2740 nM and the TGI (OVCAR-5 ovarian) was 7500 nM. For the same compound, the GI50 (HS 578T breast) was 1970 nM, the TGI (HS 578T breast) was 3480 nM and the GI50 (T-47D breast) was 605 nM. The TGI (T-47D breast) was 5690 nM, the GI50 (SN12C renal) was 2160 nM and the TGI (SN12C renal) was 7100 nM. For the same compound, the GI50 (SK-MEL-28 melanoma) was 1800 nM, the TGI (SK-MEL-28 melanoma) was 3210 nM and the GI50 (A549 NSCLC) was 1360 nM. The TGI (A549 NSCLC) was 2690 nM, the GI50 (MCF7 breast) was 1670 nM and the TGI (MCF7 breast) was 3060 nM. It also gave a GI50 (RXF 393 renal) of 1460 nM, a TGI (RXF 393 renal) of 2790 nM and a GI50 (KM12 colon) of 2210 nM. For the same compound, the TGI (KM12 colon) was 3720 nM, the GI50 (UACC-62 melanoma) was 1950 nM and the TGI (UACC-62 melanoma) was 3430 nM. For the same compound, the GI50 (NCI/ADR-RES ovarian) was 1560 nM, the TGI (NCI/ADR-RES ovarian) was 3470 nM and the GI50 (COLO 205 colon) was 3780 nM. The TGI (COLO 205 colon) was 9050 nM, the GI50 (CAKI-1 renal) was 1460 nM and the TGI (CAKI-1 renal) was 2970 nM. The GI50 (MDA-MB-231 breast) was 1930 nM, the TGI (MDA-MB-231 breast) was 3400 nM and the GI50 (SF-295 CNS) was 1960 nM. It also gave a TGI (SF-295 CNS) of 3850 nM, a GI50 (SW-620 colon) of 1990 nM and a TGI (SW-620 colon) of 3500 nM. For the same compound, the GI50 (SR leukemia) was 2090 nM, the TGI (SR leukemia) was 3530 nM and the GI50 ([…]-0 renal) was 1340 nM. For the same compound, the TGI (786-0 renal) was 2620 nM, the GI50 (HT29 colon) was 1850 nM and the TGI (HT29 colon) was 3270 nM. For the same compound, the GI50 (M14 melanoma) was 1930 nM, the TGI (M14 melanoma) was 3350 nM and the GI50 (A498 renal) was 1260 nM. The TGI (A498 renal) was 2520 nM, the GI50 (NCI-H322M lung) was 179 nM and the TGI (NCI-H322M lung) was 1140 nM. The GI50 (RPMI-8226 leukemia) was 1850 nM, the TGI (RPMI-8226 leukemia) was 3250 nM and the GI50 (K-562 leukemia) was 1690 nM. It also gave a TGI (K-562 leukemia) of 3070 nM, a GI50 (SK-OV-3 ovarian) of 785 nM and a TGI (SK-OV-3 ovarian) of 5170 nM. For the same compound, the GI50 (SK-MEL-2 melanoma) was 1600 nM, the TGI (SK-MEL-2 melanoma) was 2960 nM and the GI50 (DU-145 prostate) was 1390 nM. For the same compound, the TGI (DU-145 prostate) was 3380 nM.
